Results as given in US10342867B2 (priority 2014, dated 2019).
Marks after values point to notes of the source that are not given here.

What was measured:
[1] = rabbit, in vivo
[2] = rabbit, in vivo; remark: listed apart in the source

Substance: Monosulphate Heptadodecyl Sucrose [S12, reference compound]
- Body temperature one day after the first immunization, Mean [1]: 39.4^a ° C.
- Body temperature one day after the second immunization, Mean [1]: 39.7^a ° C.
- rise in body temperature one day after the first and second immunization [1]: about 0.5 °C
- Number of animals demonstrating a detectable adverse local reaction four weeks after the first immunization [2]: 1/6 (redness)
- Number of animals demonstrating a detectable adverse local reaction one week after the second immunization [2]: 2/6 (redness/swelling)
